Data on eight compounds can be found in article PMC7463931, “Structure-Antifouling Activity Relationship and Molecular Targets of Bio-Inspired(thio)xanthones” (Biomolecules, 2020).

In series [1] the test system is Agaricus bisporus tyrosinase. The series can be described thus: In vitro determination of tyrosinase inhibition activity. Type of series: biochemical. The method, then:
Tyrosinase inhibition assays were conducted using Agaricus bisporus tyrosinase (EC 1.14.18.1) according to Adhikari et al. with appropriate adaptations. The enzymatic reaction follows the catalytic conversion of L-Dopa to dopaquinone and the formation of dopachrome by measuring the absorbance at 475 nm. Briefly, 50 µL of tyrosinase (25 U.mL^−1) in 50 mM phosphate buffer pH 6.5, adding the defined concentration of compounds in DMSO. The enzymatic activity was initiated by L-dopa (25 mM). Kojic acid was used as positive control and DMSO as negative control.

Series [2] relates to Artemia salina nauplii. The series can be described thus: Brine shrimp (Artemia salina) lethality test. Type of series: in vivo. The note with it: 25 and 50 µM, 48 h of exposure. As to the method:
Ecotoxicity to non-target species was assessed using the brine shrimp (Artemia salina) lethality test standard protocol. Artemia cysts were cultivated and newly hatched nauplii I were used for the exposure to the most promising antifouling compounds at 50 and 25 µM. The bioassay was performed in 96-well microplates with eight replicates per condition and 15–20 nauplii per well. Positive (K2Cr2O7 at 13.6 µM) and negative (DMSO) controls were included. After 48 h of exposure, the percentage of nauplii mortality was determined.

The test system of series [3] is Mytilus galloprovincialis plantigrade larvae. The series can be described thus: M. galloprovincialis larvae anti-settlement bioassay. Format: in vivo. Particulars: for EC50: dose-response, read-out: EC50 (concentration that inhibited 50% of larval settlement); for inhibition at 50 µM: initial screening bioassay at 50 µM, 15 h. As to the method:
(§1) The 19 xanthone derivatives were screened for anti-settlement activity toward M. galloprovincialis plantigrade larvae. Samples of M. galloprovincialis juveniles were collected from mussel beds during low tides in the intertidal zone of Memória beach, Matosinhos, Portugal (41°13′59″ N; 8°43′28″ W). Mussel plantigrade larvae (0.5–2 mm) were sorted in a binocular magnifier (Olympus SZX2-ILLT, Tokyo, Japan) and kept in filtered seawater until bioassays preparation. […] Five competent larvae were included per well and four well replicates per condition. Stock solutions (50 mM) in DMSO were used to prepare test media in filtered seawater (0.1%). Negative and positive controls were used, namely DMSO (0.1%) and CuSO4 (5 μM) as an efficient antifouling agent. After exposure, the anti-settlement bioactivity was determined by the observation of efficiently attached plantigrade larvae considering the existence/absence of produced byssal threads for each test condition. Compounds producing more than 50% of settlement inhibition at 50 µM were selected for antifouling effectiveness (EC50) and toxicity (LC50 and therapeutic index) bioassays, according to previously validated experimental conditions.
(§2) Therapeutic ratios (LC50/EC50) were used to evaluate the effectiveness versus toxicity of bioactive compounds. For the differential proteome analysis, non-parametric Kruskall-Wallis (KW) and Mann Whitney (MW) tests were utilized to report protein abundance differences between treatments in MultiExperiment Viewer (MeV) version 4.9 (The Institute for Genomic Research (TIGR), La Jolla, CA, USA) at a confidence level of 95% [34]. The hierarchical clustering of proteins was made using Pearson correlation and average linkage method.

Series [4] is described as follows: Toxicity (mortality, LC50) to mussel plantigrade larvae in the anti-settlement bioassay. Format: in vivo, Mytilus galloprovincialis. The note with it: Mytilus galloprovincialis, in vivo, other: immersion in test media in filtered seawater; mussel plantigrade larvae; read-out: LC50 (median lethal dose). As to the method:
as §1, §2

For series [5], the system named is Mytilus galloprovincialis plantigrade larvae. Described as above. Format: in vivo. The method, then: as §1, §2
Series [6] deals with T1, Electrophorus electric AChE Type V-S (Electrophorus electricus, UniProt O42275).
T1 construct: purchased SIGMA C2888
T1 sequence (O42275 24-633): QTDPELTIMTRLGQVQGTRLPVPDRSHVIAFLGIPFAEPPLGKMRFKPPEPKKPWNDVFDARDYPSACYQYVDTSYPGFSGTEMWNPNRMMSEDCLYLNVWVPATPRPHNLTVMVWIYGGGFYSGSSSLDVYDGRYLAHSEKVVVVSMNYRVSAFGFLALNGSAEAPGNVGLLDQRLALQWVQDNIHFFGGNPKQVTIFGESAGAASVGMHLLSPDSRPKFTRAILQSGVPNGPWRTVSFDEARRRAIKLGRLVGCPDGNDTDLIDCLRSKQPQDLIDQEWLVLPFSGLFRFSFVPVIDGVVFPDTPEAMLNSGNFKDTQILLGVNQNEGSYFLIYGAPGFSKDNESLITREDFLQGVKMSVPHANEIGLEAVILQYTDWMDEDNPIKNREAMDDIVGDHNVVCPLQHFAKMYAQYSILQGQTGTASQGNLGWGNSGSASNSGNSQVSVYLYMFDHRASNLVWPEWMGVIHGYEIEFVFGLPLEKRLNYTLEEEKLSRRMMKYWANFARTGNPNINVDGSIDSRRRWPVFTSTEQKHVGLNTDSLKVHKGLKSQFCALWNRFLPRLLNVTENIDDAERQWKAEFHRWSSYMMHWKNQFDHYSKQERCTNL
Description: In vitro determination of acetylcholinesterase (AChE) inhibition activity. Type of series: biochemical. The note with it: for AChE inhibition compared to control: 50 µM; for dose-response of AChE activity: Figure 4b. The method, then:
AChE inhibition was evaluated as a neurotransmission biomarker for the 19 compounds using Electrophorus electric AChE Type V-S (SIGMA C2888, E.C. 3.1.1.7), according to Ellman et al. (1961) and modified by Almeida et al. (2015). Briefly, 250 μL of the reaction solution containing 30 mL of phosphate buffer, 1mL of the reagent dithiobisnitrobenzoate (DTNB) at 10 mM (acid dithiobisnitrobenzoate and sodium hydrogen carbonate in phosphate buffer), and 200 μL of […] 0.075 M was added to 50 μL of pure AChE (0.25 U.mL^−1) and each test compound at final concentration of 30 μg mL^−1 in quadruplicate. AChE activity was followed at 412 nm during 5 min at 25 °C. Negative and positive controls were included, namely ultra-pure water and eserine (20 mM), respectively, and a blank containing 50 μL of phosphate buffer.

Series [7] deals with Mytilus galloprovincialis plantigrade larvae. Also on record: method as in PMID 31669574. Particulars: at 108 µM, same bioassay conditions; cited from earlier work.

Like-named read-outs stand apart in the source and are kept apart here.

`O=c1c2ccc(O)cc2oc2cc(O)ccc12` [Compound 8, 3,6-dihydroxy-]: the “inhibition of tyrosinase activity” value in series [1] (50 µM) turned out to be 34%.
With `CCCOc1ccc(NCCc2ccc3c(c2)OCO3)c2c(=O)c3ccccc3sc12` [Compound 15, 1-[11]-4-propoxy-9H-thioxanthen-9-one], the Artemia salina mortality in series [2] is reported as more than 10%. Besides, the EC50 in series [3] (Probit regression, 95% CI) came out at 28.6 µM. In series [3], the EC50 is 12.4 µg/mL and the inhibition at 50 µM was 71.2 ± 10.9%. Besides, the median lethal concentration (LC50) at 15 h in series [4] was more than 500 µM.
Compound `O=c1c2ccccc2oc2c(O)c(O)ccc12` [Compound 7, 3,4-dihydroxy-] gave an Artemia salina mortality in series [2] of less than 10%. Besides, the “induction of tyrosinase activity” value in series [1] (25 μM) is 11.7%; in series [1] (200 μM), 62.5%. In addition, the EC50 came out at 11.5 µM in series [3] (Probit regression, 95% CI) and 2.63 µg/mL in series [3]. In addition, in series [3], the inhibition at 50 µM is 65 ± 17.1%. Moreover, the 50% lethal concentration (LC50) at 15 h in series [4] is more than 500 µM.
In turn, `CCCOc1ccc(N2CCCCC2)c2c(=O)c3ccccc3sc12` [Compound 17, 1-(piperidin-1-yl)-4-propoxy-9H-thioxanthen-9-one] yielded an Artemia salina mortality in series [2] of more than 10%. Further, in series [3] (Probit regression, 95% CI), the EC50 was found to be 3.53 µM. Also, in series [3], the EC50 came to 1.25 µg/mL and the inhibition at 50 µM stood at 71.7 ± 5%. For the same compound, in series [4], the LC50 at 15 h is more than 500 µM. Moreover, the “mortality of mussel plantigrade larvae” value in series [5] (at 500 µM) came to 17%.
In series [2], `O=c1c2ccccc2oc2c(O)cccc12` [Compound 4, 4-hydroxy-] yielded an Artemia salina mortality of more than 10%. In series [3] (Probit regression, 95% CI), the EC50 was 21.5 µM. Also, in series [3], the EC50 came to 4.55 µg/mL and the inhibition at 50 µM amounted to 70 ± 12.9%. In series [4], the LC50 at 15 h is more than 500 µM. In addition, in series [6], the “AChE inhibition compared to control” value is “showed AChE inhibition” and the “dose-response of AChE activity” value is recorded as “concentration-dependent modulation of AChE activity”.
On to `O=c1c2ccccc2oc2ccc(O)c(O)c12` [Compound 5, 1,2-dihydroxy-], for which, in series [2], the Artemia salina mortality is more than 10%. Besides, the EC50 in series [3] (Probit regression, 95% CI) was found to be 15.5 µM. Moreover, in series [3], the EC50 was 3.52 µg/mL and the inhibition at 50 µM came to 70 ± 12.9%. For the same compound, the median lethal concentration (LC50) at 15 h in series [4] was more than 500 µM. Moreover, in series [6], the “AChE inhibition compared to control” value was “showed AChE inhibition” and the “dose-response of AChE activity” value was “concentration-dependent modulation of AChE activity”.
Consider `N#Cc1c(-c2ccc(Cl)cc2)[nH]c(C(F)(F)F)c1Br` [ECONEA], for which, in series [7], the “mortality of mussel plantigrade larvae” value is on record as 50%.
As to `CC1(C)CCc2cc3c(=O)c4ccccc4oc3c(O)c2O1` [Compound 10, 4-dihydro-12-hydroxy-2,2-dimethyl-2H,6H-pyrano [3,2-b]xanthone], the Artemia salina mortality in series [2] is reported as less than 10%. For the same compound, in series [3] (Probit regression, 95% CI), the EC50 was found to be 4.6 µM. In series [3], the EC50 is 1.36 µg/mL and at 50 µM the inhibition was 75 ± 9.6%. Moreover, the LC50 at 15 h in series [4] was more than 500 µM. In addition, the “mortality of mussel plantigrade larvae” value in series [5] (at 100 µM) stood at 15%.
